Results as given in the Kinase Knowledgebase extract (Sharma et al. 2016).

Target: CDK2 (UniProt P24941)
Experiment: Enzyme Assay
Conditions: for inhibition: concentration not given here

Ki [nM] | inhibition [%] | Structure (SMILES)
682 | 57 | O=C1NC(=O)C2=C1c1cn(c3ncccc13)CCCCC(O)CCCCn1cc2c2cccnc21
1230 | 50 | O=C1CCCCn2cc(c3cccnc32)C2=C(C(=O)NC2=O)c2cn(c3ncccc23)CCCC1
– | 20 | O=C1NC(=O)C2=C1c1cn(c3ncccc13)CCCC1=CC=C(CCCn3cc2c2cccnc23)S1
